Data: US20070021360A1, “Compositions, formulations and kit with anti-sense oligonucleotide and anti-inflammatory steroid and/or obiquinone for treatment of respiratory and lung disesase” (priority 2001, published 2007)

Legend:
adenosine A1 receptor [1] = test: Adenosine-induced bronchoconstriction (PC50 Adenosine) in allergic rabbits; assay type: in vivo
Procedure: A fortuitous hoology between the rabbit and human DNA sequences within the adenosine A1 gene overlapping the initiation codon permitted the use of the phosphorothioate anti-sense oligonucleotides initially designed for use against the human adenosine A1 receptor in a rabbit model. Neonatal New Zealand white Pasteurella-free rabbits were immunized intraperitoneally within 24 hours of birth with 312 antigen units/ml house dust mite (D. farinae) extract (Berkeley Biologicals, Berkeley, Calif.), mixed with 10% kaolin. Immunizations were repeated weekly for the first month and then biweekly for the next 2 months. At 3-4 months of age, eight sensitized rabbits were anesthetized and relaxed with a mixture of ketamine hydrochloride (44 mg/kg) and acepromazine maleate (0.4 mg/kg) administered intramuscularly. The rabbits were then laid supine in a comfortable position on a small molded, padded animal board and intubated with a 4.0-mm intratracheal tube (Mallinkrodt, Inc., Glens Falls, N.Y.). A polyethylene catheter of external diameter 2.4 mm with an attached latex balloon was passed into the esophagus and maintained at the same distance (approximately 16 cm) from the mouth throughout the experiments. The intratracheal tube was attached to a heated Fleisch pneumotachograph (size 00; DOM Medical, Richmond, Va.), and flow was measured using a Validyne differential pressure transducer (Model DP-45161927; Validyne Engineering Corp., Northridge, Calif.) driven by a Gould carrier amplifier (Model 11-4113; Gould Electronic, Cleveland, Ohio). The esophageal balloon was attached to one side of the differential pressure transducer, and the outflow of the intratracheal tube was connected to the opposite side of the pressure transducer to allow recording of transpulmonary pressure. Flow was integrated to give a continuous tidal volume, and measurements of total lung resistance (RL) and dynamic compliance (Cdyn) were calculated at isovolumetric and flow zero points, respectively, using an automated respiratory analyzer (Model 6; Buxco, Sharon, Conn.). Animals were randomized and on Day 1 pretreatment values for PC50 were obtained for aerosolized adenosine. Anti-sense (HAdA1AS) or mismatched control (HAdA1MM) oligonucleotides were dissolved in sterile physiological saline at a concentration of 5000 μg (5 mg) per 1.0 ml. […] Aerosols of either saline, adenosine, or anti-sense or mismatch oligonucleotides were generated by an ultrasonic nebulizer (DeVilbiss, Somerset, Pa.), producing aerosol droplets 80% of which were smaller than 5:m in diameter. In the first arm of the experiment, four randomly selected allergic rabbits were administered anti-sense oligonucleotide and four the mismatched control oligonucleotide. On the morning of the third day, PC50 values (the concentration of aerosolized adenosine in mg/ml required to reduce the dynamic compliance of the bronchial airway 50% from the baseline value) were obtained and compared to PC50 values obtained for these animals prior to exposure to oligonucleotide. Following a 1 week interval, animals were crossed over, with those previously administered mismatch control oligonucleotide now administered anti-sense oligonucleotide, and those previously treated with anti-sense oligonucleotide now administered mismatch control oligonucleotide. Treatment methods and measurements were identical to those employed in the first arm of the experiment. […] For the purpose of calculation, PC50 values for these animals were set at 20 mg/ml. The values given therefore represent a minimum figure for anti-sense effectiveness. Actual effectiveness was higher.
Aerosols of either adenosine (0-20 mglnml), or anti-sense or one of two mismatch oligonucleotides (5 mg/ml) were separately prepared with an ultrasonic nebulizer (Model 646, DeVilbiss, Somerset, Pa.), which produced aerosol droplets, 80% of which were smaller than 5:m in diameter. […]

adenosine A1 receptor [2] = molecular target: T1, adenosine A1 receptor (Oryctolagus cuniculus, UniProt P34970); test: Adenosine A1 receptor binding ([3H]DPCPX) in airway smooth muscle membranes of treated rabbits; details: for A1 receptor Bmax: [3H]DPCPX
T1 construct: Airway smooth muscle tissue was dissected from each rabbit and a membrane fraction prepared; from tissue; host or cells: rabbit airway smooth muscle, crude plasma membranes
T1 sequence (P34970 1-328): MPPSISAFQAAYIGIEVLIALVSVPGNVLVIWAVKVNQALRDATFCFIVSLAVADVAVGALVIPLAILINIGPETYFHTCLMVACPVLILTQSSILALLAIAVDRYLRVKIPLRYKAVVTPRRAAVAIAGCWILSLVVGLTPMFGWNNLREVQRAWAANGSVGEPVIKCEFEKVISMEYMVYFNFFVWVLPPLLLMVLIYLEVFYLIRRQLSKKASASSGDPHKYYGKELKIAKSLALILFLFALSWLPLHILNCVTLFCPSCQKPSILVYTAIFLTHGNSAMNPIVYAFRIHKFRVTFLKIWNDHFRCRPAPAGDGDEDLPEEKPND
Excerpt: At the conclusion of the cross-over experiment of Example 3 above, airway smooth muscle from all rabbits was quantitatively analyzed for adenosine A1 receptor number. As a control for the specificity of the anti-sense oligonucleotide, adenosine A2 receptors, which should not have been affected, were also quantified. Airway smooth muscle tissue was dissected from each rabbit and a membrane fraction prepared according to the method of Kleinstein et al. (Kleinstein, J. and Glossrnann, H., Naunyn-Schrniedeberg's Arch Pharmacol. 305: 191-200 (1978)), the relevant portion of which is hereby incorporated in its entirety by reference, with slight modifications. Crude plasma membrane preparations were stored at −70 EC until the time of assay. Protein content was determined by the method of Bradford (M. Bradford, Anal. Biochem. 72, 240-254 (1976), the relevant portion of which is hereby incorporated in its entirety by reference). Frozen plasma membranes were thawed at room temperature and were incubated with 0.2 U/ml adenosine deaminase for 30 minutes at 37 EC to remove endogenous adenosine. The binding of [^3H] DPCPX (A1 receptor-specific) or [^3H] CGS-21680 ([…]) was measured as previously described by Ali et al. (Ali, S. et al., J. Pharmacol. Exp. Ther. 268, Ara. J. Physiol 266, L271-277 (1994), the relevant portion of which is hereby incorporated in its entirety by reference). […] There was no change in adenosine A2 receptor number, as assayed by specific binding of the A2 receptor-specific agonist 2-[p-(2-carboxyethyl)-phenethylamino]-5′-(N-ethylcarboxamido) adenosine (CGS-21680). This is illustrated in Table 6 below.
A membrane fraction was prepared according to the method of Ali et al. (Ali, S., et al., Am. J. Resp. Crit Care Med. 149: 908 (1994), the relevant section relating to the preparation of the membrane fraction is incorporated in its entirety hereby by reference). The protein content was determined by the method of Bradford and plasma membranes were incubated with 0.2 U/ml adenosine deaminase for 30 minutes at 37 EC to remove endogenous adenosine. See, Bradford, M. M. Anal. Biochem. 72, 240-254 (1976), the relevant portion of which is hereby incorporated in its entirety by reference. The binding of [^3H]DPCPX, [^3H]NPC17731, or [^3H]CGS-21680 was measured as described by Jarvis et al. See, Jarvis, M. F., et al., Pharmacol. Exptl. Ther. 251, 888-893 (1989), the relevant portion of which is fully incorporated herein by reference.

## 5′-GTAGCAGGCGGGGATGGGGGC-3′ [HAdA1MM1, reference compound]
Adenosine A1 receptor [1]; allergic rabbits, cross-over experiment, 20 mg total aerosolized oligo
  effect on PC50 Adenosine value: No effect
Adenosine A1 receptor [1]; asthmatic rabbits, approx. 5 mg aerosolized oligo twice daily for two days, third day, non-responders set at 20 mg/ml, mean (n = 8) ± SEM
  PC50 Post Oligonucleotide: 5.16 ± 1.03 mg/mL
Adenosine A1 receptor [1]; asthmatic rabbits, baseline before oligonucleotide, aerosolized adenosine reducing dynamic compliance 50%, mean (n = 8) ± SEM
  PC50 Pre Oligonucleotide: 3.56 ± 1.02 mg/mL
Adenosine A1 receptor [1]; rabbits receiving inhaled oligonucleotide
  toxicity: No toxicity was observed
Adenosine A1 receptor [2]; Kd of [3H]DPCPX in membranes of rabbits treated with 2 mg oligo
  Kd: 0.37 ± 0.033 nM
Adenosine A1 receptor [2]; Kd of [3H]DPCPX in membranes of rabbits treated with 20 mg oligo
  Kd: 0.34 ± 0.027 nM
Adenosine A1 receptor [2]; rabbits treated with 2 mg oligo
  A1 receptor Bmax: 51.8 ± 3.88 fmol
Adenosine A1 receptor [2]; rabbits treated with 20 mg oligo
  A1 receptor Bmax: 52.0 ± 3.64 fmol
Adenosine A1 receptor [2]; airway smooth muscle membranes after cross-over experiment, mean (n = 8) ± SEM
  A1-Specific Binding: 1105 ± 48
